Experimental data from patent US8288370B2, “Substituted azetidine compounds of formula (I) useful in the treatment of functional gastrointestinal disorders, IBS, and functional dyspepsia” (Albireo AB, priority 2005, dated 2012).
Where a name gives a salt, the structure may show the parent alone.

Tests used:
[1] = test system: Human Neurokinin-2 (NK2) Receptor; conditions: literature statement; cited from earlier work
[2] = target: hERG-encoded potassium channel (Homo sapiens, UniProt Q12809); assay: Activity against hERG (planar-array-based voltage clamp, Kiss et al.); type: cell-based
Sequence of hERG-encoded potassium channel (Q12809 whole entry): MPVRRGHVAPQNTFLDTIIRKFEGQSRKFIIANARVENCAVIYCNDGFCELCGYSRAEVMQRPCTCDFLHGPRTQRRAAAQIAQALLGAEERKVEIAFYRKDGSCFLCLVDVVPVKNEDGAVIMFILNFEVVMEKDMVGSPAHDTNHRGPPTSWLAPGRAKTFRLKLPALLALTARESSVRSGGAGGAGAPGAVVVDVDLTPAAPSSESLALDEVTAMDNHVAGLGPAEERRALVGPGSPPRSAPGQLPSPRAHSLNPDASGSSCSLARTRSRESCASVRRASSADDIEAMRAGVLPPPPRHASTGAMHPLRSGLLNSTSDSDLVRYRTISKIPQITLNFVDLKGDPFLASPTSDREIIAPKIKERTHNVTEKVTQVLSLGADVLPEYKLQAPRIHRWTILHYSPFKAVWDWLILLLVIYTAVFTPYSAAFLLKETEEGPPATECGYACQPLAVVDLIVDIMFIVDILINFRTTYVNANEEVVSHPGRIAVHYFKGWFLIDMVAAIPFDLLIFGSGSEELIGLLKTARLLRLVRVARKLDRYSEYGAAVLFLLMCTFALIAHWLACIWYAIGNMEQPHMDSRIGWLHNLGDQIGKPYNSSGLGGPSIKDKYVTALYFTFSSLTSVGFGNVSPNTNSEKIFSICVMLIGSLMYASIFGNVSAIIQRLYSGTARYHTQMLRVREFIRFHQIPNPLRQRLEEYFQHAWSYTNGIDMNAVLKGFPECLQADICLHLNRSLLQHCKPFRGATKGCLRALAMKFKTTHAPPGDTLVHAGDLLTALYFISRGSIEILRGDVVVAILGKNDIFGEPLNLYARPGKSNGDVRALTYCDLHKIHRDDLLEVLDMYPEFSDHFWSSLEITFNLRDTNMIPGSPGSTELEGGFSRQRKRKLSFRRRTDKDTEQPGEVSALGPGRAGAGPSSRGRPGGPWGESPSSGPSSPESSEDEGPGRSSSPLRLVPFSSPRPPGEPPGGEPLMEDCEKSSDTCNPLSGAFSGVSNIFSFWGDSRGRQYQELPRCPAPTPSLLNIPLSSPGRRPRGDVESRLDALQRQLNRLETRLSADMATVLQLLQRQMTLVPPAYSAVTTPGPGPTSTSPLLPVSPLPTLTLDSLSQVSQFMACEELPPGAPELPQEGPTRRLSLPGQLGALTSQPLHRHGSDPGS
Excerpt: The activity of compounds according to formula I against the hERG-encoded potassium channel can be determined according to Kiss L, et al. Assay Drug Dev Technol. 1 (2003), 127-35: “High throughput ion-channel pharmacology: planar-array-based voltage clamp”.

human NK3 receptor = target: T1, human NK3 receptor (Homo sapiens, UniProt P29371); assay: FLIPR assay, inhibition of human NK3 receptor activation (intracellular Ca2+ increase); type: cell-based; conditions: CHO cells with human NK3 receptor, agonist Pro-7-NKB; pKB converted from IC50
T1 construct: expressed in transfected cells; hNK3R in pcDNA 3.1/Hygro (+)/IRES/CD8
T1 sequence (P29371 1-465): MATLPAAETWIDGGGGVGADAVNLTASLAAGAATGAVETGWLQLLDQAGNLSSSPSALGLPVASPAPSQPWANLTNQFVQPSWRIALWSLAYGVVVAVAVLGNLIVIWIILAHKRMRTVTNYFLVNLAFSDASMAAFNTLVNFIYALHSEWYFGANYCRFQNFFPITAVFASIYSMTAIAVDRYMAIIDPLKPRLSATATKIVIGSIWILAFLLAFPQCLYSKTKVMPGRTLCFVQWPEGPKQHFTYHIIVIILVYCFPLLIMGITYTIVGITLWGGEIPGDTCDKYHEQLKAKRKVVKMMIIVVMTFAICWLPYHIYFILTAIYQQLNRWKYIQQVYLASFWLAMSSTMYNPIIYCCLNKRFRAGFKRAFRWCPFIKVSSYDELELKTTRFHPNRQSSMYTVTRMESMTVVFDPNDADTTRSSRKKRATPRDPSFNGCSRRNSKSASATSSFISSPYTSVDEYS
Method: (§1) Chinese Hamster Ovary (CHO) K1 cells (obtained from ATCC) were stably transfected with the human NK2 receptor (hNK2R cDNA in pRc/CMV, Invitrogen) or the human NK3 receptor (hNK3R in pcDNA 3.1/Hygro (+)/IRES/CD8, Invitrogen vector modified at AstraZeneca EST-Bio UK, Alderley Park). The cells were transfected with the cationic lipid reagent LIPOFECTAMINE™ (Invitrogen) and selection was performed with Geneticin (G418, Invitrogen) at 1 mg/ml for the hNK2R transfected cells and with Hygromycin (Invitrogen) at 500 μg/ml for the hNK3R transfected cells. Single cell clones were collected by aid of Fluorescence Activated Cell Sorter (FACS), tested for functionality in a FLIPR assay (see below), expanded in culture and cryopreserved for future use. CHO cells stably transfected with human NK1 receptors originates from AstraZeneca R&D, Wilmington USA. Human NK1 receptor cDNA (obtained from RNA-PCR from lung tissue) was subcloned into pRcCMV (Invitrogen). Transfection was performed by Calcium Phosphate and selection with 1 mg/ml G418. […]
(§2) The activity of a compound of the invention to inhibit NK1/NK2/NK3 receptor activation measured as NK1/NK2/NK3 receptor mediated increase in intracellular Ca^2+ was assessed by the following procedure: […]

CYP3A4 = CYP3A4 (Homo sapiens, UniProt P08684); assay: CYP3A4 inhibition assay (Bapiro et al.); type: in vitro ADME
Sequence of CYP3A4 (P08684 whole entry): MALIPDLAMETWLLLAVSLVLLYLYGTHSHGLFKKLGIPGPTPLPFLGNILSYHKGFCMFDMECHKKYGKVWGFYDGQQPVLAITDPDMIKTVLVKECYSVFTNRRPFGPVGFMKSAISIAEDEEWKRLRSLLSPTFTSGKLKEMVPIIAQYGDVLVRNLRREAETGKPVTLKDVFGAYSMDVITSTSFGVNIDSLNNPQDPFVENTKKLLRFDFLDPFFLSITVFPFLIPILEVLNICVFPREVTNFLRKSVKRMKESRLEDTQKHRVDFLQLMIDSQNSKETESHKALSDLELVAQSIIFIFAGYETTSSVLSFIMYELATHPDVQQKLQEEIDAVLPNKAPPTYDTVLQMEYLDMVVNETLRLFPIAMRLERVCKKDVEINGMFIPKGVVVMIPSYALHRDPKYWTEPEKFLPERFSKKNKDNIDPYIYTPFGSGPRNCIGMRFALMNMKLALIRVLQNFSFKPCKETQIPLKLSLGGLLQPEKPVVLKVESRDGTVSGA
Excerpt: It is well known that severe problems such as toxicity may occur if plasma levels of one medication are altered by the co-administration of another drug. […] CYP (cytochrome P450) 3A4 is the most important enzyme in the human liver as a majority of oxidised drugs have been biotransformed by this enzyme. Accordingly, it is undesirable to employ a medication having a significant degree of such liver enzyme inhibiting properties. […] Thus, there is a need for a novel NK receptor antagonist with improved pharmacokinetic properties. The present invention provides compounds with CYP3A4 enzyme inhibiting properties at a low level, as comparatively high IC50 values are obtained in a CYP3A4 inhibiting assay. Said method for determining CYP3A4 inhibition is described in Bapiro et al; Drug Metab. Dispos. 29, 30-35 (2001).
The IC50 values tested according to Bapiro et al; Drug Metab. Dispos. 29, 30-35 (2001) were generally greater than 15 μM.

[3] = Metabolic stability in liver microsomes (intrinsic clearance); type: in vitro ADME; conditions: human, pH 7.4, HLM
Method: The rate of biotransformation can be measured as either metabolite(s) formation or the rate of disappearance of the parent compound. The experimental design involves incubation of low concentrations of substrate (usually 1.0 μM) with liver microsomes (usually 0.5 mg/ml) and taking out aliquotes at varying time points (usually 0, 5, 10, 15, 20, 30, 40 min.). The test compound is usually dissolved in DMSO. The DMSO concentration in the incubation mixture is usually 0.1% or less since more solvent can drastically reduce the activities of some CYP450s. Incubations are done in 100 mM potassium phosphate buffer, pH 7.4 and at 37° C. Acetonitrile or methanol is used to stop the reaction. The parent compound is analysed by HPLC-MS. From the calculated half-life, t1/2, the intrinsic clearance, Clint, is estimated by taking microsomal protein concentration and liver weight into account.

human NK2 receptor = target: T2, human NK2 receptor (Homo sapiens, UniProt P21452); assay: FLIPR assay, inhibition of human NK2 receptor activation (intracellular Ca2+ increase); type: cell-based; conditions: CHO cells with human NK2 receptor, agonist NKA; pKB converted from IC50
T2 construct: expressed in transfected cells; hNK2R cDNA in pRc/CMV
T2 sequence (P21452 1-398): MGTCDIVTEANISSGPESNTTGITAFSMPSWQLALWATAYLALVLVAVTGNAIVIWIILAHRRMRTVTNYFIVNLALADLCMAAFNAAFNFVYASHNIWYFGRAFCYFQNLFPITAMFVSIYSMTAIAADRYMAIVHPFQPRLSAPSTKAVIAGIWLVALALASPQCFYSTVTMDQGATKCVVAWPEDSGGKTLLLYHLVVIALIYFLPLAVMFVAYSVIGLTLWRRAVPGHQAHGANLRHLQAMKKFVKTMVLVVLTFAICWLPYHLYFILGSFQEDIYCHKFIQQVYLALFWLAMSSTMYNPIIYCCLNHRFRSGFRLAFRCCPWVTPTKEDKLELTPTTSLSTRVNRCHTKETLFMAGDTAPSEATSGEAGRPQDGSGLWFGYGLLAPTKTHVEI
Method: as §1, §2

human NK1 receptor = target: T3, human NK1 receptor (Homo sapiens, UniProt P25103); assay: FLIPR assay, inhibition of human NK1 receptor activation (intracellular Ca2+ increase); type: cell-based; conditions: CHO cells with human NK1 receptor, agonist Substance P; pKB converted from IC50
T3 construct: expressed in transfected cells; cDNA in pRcCMV
T3 sequence (P25103 whole entry): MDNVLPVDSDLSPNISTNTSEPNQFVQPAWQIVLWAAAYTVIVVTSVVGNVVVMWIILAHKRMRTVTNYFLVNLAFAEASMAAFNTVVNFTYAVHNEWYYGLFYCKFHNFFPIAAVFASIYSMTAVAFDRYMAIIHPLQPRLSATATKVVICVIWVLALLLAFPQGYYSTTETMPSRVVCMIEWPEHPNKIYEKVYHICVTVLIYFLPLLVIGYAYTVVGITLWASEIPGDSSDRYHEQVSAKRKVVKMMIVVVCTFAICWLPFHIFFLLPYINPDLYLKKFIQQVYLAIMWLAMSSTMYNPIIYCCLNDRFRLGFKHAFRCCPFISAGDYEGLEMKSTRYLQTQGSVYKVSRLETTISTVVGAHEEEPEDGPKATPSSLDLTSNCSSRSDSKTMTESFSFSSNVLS
Method: as §1, §2

Compound	functional NK2 receptor antagonistic properties [1]	IC50 [2] [nM]	Kb (human NK3 receptor) [nM]	IC50 (CYP3A4) [nM]	microsomal CLint at 1 μM [3] [µL/min/mg]	Kb (human NK2 receptor) [nM]	Kb (human NK1 receptor) [nM]
CN(CC(CCN1CC(N2CCOCC2)C1)c1ccc(Cl)c(Cl)c1)C(=O)c1ccccc1 (stereo not shown) [N-[2-(3,4-dichlorophenyl)-4-(3-morpholin-4-ylazetidin-1-yl)butyl]-N-methylbenzamide]	possess functional NK2 receptor antagonistic properties	–	–	–	–	–	–
CN(C[C@@H](CCN1CC(N2CCN3C(=O)CC[C@@H]3C2)C1)c1ccc(F)cc1)C(=O)c1cc(Br)cc(C(F)(F)F)c1 [Ex 1, 3-Bromo-N-((2S)-2-(4-fluorophenyl)-4-{3-[(8aR)-6-oxohexahydropyrrolo[1,2-a]pyrazin-2(1H)-yl]azetidin-1-yl}butyl)-N-methyl-5-(trifluoromethyl)benzamide dihydrochloride]	–	12400	3.16	> 50000	14	15.8	2
